In ChEMBL document CHEMBL5244255, “An insight on medicinal attributes of 1,2,4-triazoles” (Eur J Med Chem, 2020):
In brackets after ≈: the same amount, converted by molar mass.

How the values were obtained:
[1] = test system: Mycobacterium tuberculosis; assay: Antimycobacterial activity against drug resistant Mycobacterium tuberculosis measured after 8 to 9 days; format: functional; conditions: time 8-9 day
[2] = test system: Mycobacterium tuberculosis; assay: Antimycobacterial activity against multi drug resistant Mycobacterium tuberculosis measured after 8 to 9 days; format: functional; conditions: time 8-9 day

Compound | MIC [1] | MIC [2]
Clc1ccc(-c2nnc3sc(COc4ccc(Br)cc4)nn23)cc1 | 0.5 µg/mL (≈ 1.19 µM) | 4 µg/mL (≈ 9.49 µM)
Brc1ccc(OCc2nn3c(-c4ccc(Br)cc4)nnc3s2)cc1 | 0.5 µg/mL (≈ 1.07 µM) | 4 µg/mL (≈ 8.58 µM)
O=[N+]([O-])c1ccc(C2=Nn3c(nnc3-c3ccc(Br)cc3)CC2)cc1 | 0.25 µg/mL (≈ 0.628 µM) | 
O=[N+]([O-])c1ccc(C2=Nn3c(nnc3-c3ccnc(F)c3)CC2)cc1 | 0.25 µg/mL (≈ 0.739 µM) | 0.25 µg/mL (≈ 0.739 µM)
O=[N+]([O-])c1ncn(CCCCNS(=O)(=O)c2scc(Cl)c2Cl)n1 |  | 0.25 µg/mL (≈ 0.625 µM)
